Measured values as given in patent publication US12331035B2, “Bicyclic compound and use thereof” (SK BIOPHARMACEUTICALS CO., LTD., priority 2019, dated 2025).

target: T1, PRMT5-MEP50 enzyme complex (Homo sapiens, UniProt O14744); assay: In vitro PRMT5 enzyme activity assay (methylation of histone H4 arginine H4R3, ELISA absorbance at 450 nm); format: biochemical; conditions: S-adenosylmethionine, histone H4 peptide, 2 hours at room temperature, 8 points 10 μM to 0.128 nM
T1 construct: purchased BPS Bioscience (USA) 51045
T1 sequence (O14744 2-637 limits assumed): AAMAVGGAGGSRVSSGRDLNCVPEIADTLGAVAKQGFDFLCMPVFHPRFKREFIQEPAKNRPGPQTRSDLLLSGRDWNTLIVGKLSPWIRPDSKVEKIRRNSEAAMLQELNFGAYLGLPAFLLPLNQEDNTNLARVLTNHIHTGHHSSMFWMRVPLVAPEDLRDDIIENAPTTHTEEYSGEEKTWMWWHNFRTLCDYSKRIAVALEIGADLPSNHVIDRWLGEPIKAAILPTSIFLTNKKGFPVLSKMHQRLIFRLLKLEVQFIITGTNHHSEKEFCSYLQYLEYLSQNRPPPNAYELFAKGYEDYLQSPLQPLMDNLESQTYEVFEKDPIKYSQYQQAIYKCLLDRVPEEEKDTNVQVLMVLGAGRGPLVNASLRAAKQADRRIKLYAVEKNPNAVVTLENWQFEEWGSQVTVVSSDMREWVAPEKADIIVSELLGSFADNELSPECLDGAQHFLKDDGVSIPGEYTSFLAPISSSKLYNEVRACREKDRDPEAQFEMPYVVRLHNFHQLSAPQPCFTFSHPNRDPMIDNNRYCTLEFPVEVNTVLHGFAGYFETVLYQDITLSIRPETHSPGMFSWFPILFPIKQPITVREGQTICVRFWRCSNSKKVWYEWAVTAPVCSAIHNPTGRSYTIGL
T1 sequence (Q9BQA1 2-342 partner limits assumed): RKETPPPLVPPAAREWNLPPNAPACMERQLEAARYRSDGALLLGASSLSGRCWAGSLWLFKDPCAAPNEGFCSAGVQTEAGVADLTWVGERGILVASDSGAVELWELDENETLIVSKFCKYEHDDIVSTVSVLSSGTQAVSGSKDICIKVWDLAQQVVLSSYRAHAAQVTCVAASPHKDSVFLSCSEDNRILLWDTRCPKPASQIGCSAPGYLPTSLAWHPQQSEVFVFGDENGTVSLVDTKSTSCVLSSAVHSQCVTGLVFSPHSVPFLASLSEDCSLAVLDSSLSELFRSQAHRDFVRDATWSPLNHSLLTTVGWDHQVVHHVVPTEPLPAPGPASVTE
How it was run: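 Human PRMT5-MEP50 (5 μg/mL working stock) with 2 μM SAM stock on histone H4 (1-20) peptide-coated plates, compound 8-point 1:5 series from 10 μM, 2 h at room temperature. H4R3 methylation detected by antibody/HRP ELISA, absorbance 450 nm; IC50 calculated.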

IC50 | SMILES
1 to 100 nM | CC(=O)N1CC2CC1CN2c1ccc2c(c1)CCN(C[C@H](O)CN1CCc3ccccc3C1)C2=O (stereo partly drawn) [Example 81, 6-(5-acetyl-2,5-diazabicyclo[2.2.1]heptan-2-yl)-2-[(2R)-3-(3,4-dihydro-1H-isoquinolin-2-yl)-2-hydroxy-propyl]-3,4-dihydroisoquinolin-1-one]
1 to 100 nM | CC(=O)N1CCN(c2ccc3c(c2)CCN(C[C@H](O)CN2CCc4ccccc4C2)C3=O)CC12CC2 [Example 82, 6-(4-acetyl-4,7-diazaspiro[2.5]octan-7-yl)-2-[(2R)-3-(3,4-dihydro-1H-isoquinolin-2-yl)-2-hydroxy-propyl]-3,4-dihydroisoquinolin-1-one]
100 to 1000 nM | CC(=O)N1CCC(COc2ccc3c(c2)CCN(C[C@H](O)CN2CCc4ccccc4C2)C3=O)CC1 [Example 83, 6-[(1-acetyl-4-piperidyl)methoxy]-2-[(2R)-3-(3,4-dihydro-1H-isoquinolin-2-yl)-2-hydroxy-propyl]-3,4-dihydroisoquinolin-1-one]
100 to 1000 nM | CN1CCN(c2ccc3c(c2)CCN(C[C@H](O)CN2CCc4ccccc4C2)C3=O)CCC1=O [Example 84, 2-[(2R)-3-(3,4-dihydro-1H-isoquinolin-2-yl)-2-hydroxy-propyl]-6-(4-methyl-5-oxo-1,4-diazepan-1-yl)-3,4-dihydroisoquinolin-1-one]
100 to 1000 nM | CC(C)N1CCN(c2ccc3c(c2)CCN(C[C@H](O)CN2CCc4ccccc4C2)C3=O)CC1=O [Example 85, 2-[(2R)-3-(3,4-dihydro-1H-isoquinolin-2-yl)-2-hydroxy-propyl]-6-(4-isopropyl-3-oxo-piperazin-1-yl)-3,4-dihydroisoquinolin-1-one]
100 to 1000 nM | CC(=O)N1CCN(c2ccc3c(c2)CCN(C[C@H](O)CN2CCc4ccccc4C2)C3=O)C(=O)C1 [Example 86, 6-(4-acetyl-2-oxo-piperazin-1-yl)-2-[(2R)-3-(3,4-dihydro-1H-isoquinolin-2-yl)-2-hydroxy-propyl]-3,4-dihydroisoquinolin-1-one]
1 to 100 nM | CC(=O)N1CCN(c2ccc3c(n2)CCN(C[C@H](O)CN2CCc4ccccc4C2)C3=O)CC1 [Example 88, 2-(4-acetylpiperazin-1-yl)-6-[(2R)-3-(3,4-dihydro-1H-isoquinolin-2-yl)-2-hydroxy-propyl]-7,8-dihydro-1,6-naphthyridin-5-one]
1 to 100 nM | O=C1c2ccc(N3CCOCC3)nc2CCN1C[C@H](O)CN1CCc2ccccc2C1 [Example 89, 6-[(2R)-3-(3,4-dihydro-1H-isoquinolin-2-yl)-2-hydroxy-propyl]-2-morpholino-7,8-dihydro-1,6-naphthyridin-5-one]
1 to 100 nM | CC(=O)N(C)C1CCN(c2ccc3c(c2)CCN(C[C@H](O)CN2CCc4ccccc4C2)C3=O)CC1 [Example 90, N-[1-[2-[(2R)-3-(3,4-dihydro-1H-isoquinolin-2-yl)-2-hydroxy-propyl]-1-oxo-3,4-dihydroisoquinolin-6-yl]-4-piperidyl]-N-methyl-acetamide]
1 to 100 nM | O=C1c2ccc(OC3CCOCC3)cc2CCN1C[C@H](O)CN1CCc2ccccc2C1 [Example 91, 2-[(2R)-3-(3,4-dihydro-1H-isoquinolin-2-yl)-2-hydroxy-propyl]-6-tetrahydropyran-4-yloxy-3,4-dihydroisoquinolin-1-one]
100 to 1000 nM | CC(=O)NC1CCN(c2ccc3c(c2)CCN(C[C@H](O)CN2CCc4ccccc4C2)C3=O)CC1 [Example 92, N-[1-[2-[(2R)-3-(3,4-dihydro-1H-isoquinolin-2-yl)-2-hydroxy-propyl]-1-oxo-3,4-dihydroisoquinolin-6-yl]-4-piperidyl]acetamide]
1 to 100 nM | CC(=O)N1CCCC(Nc2ccc3c(c2)CCN(C[C@H](O)CN2CCc4ccccc4C2)C3=O)C1 (stereo partly drawn) [Example 93, 6-[(1-acetyl-3-piperidyl)amino]-2-[(2R)-3-(3,4-dihydro-1H-isoquinolin-2-yl)-2-hydroxy-propyl]-3,4-dihydroisoquinolin-1-one]
1 to 100 nM | O=C1c2ccc(N3CCN4C(=O)OCC4C3)cc2CCN1C[C@H](O)CN1CCc2ccccc2C1 (stereo partly drawn) [Example 94, 7-[2-[(2R)-3-(3,4-dihydro-1H-isoquinolin-2-yl)-2-hydroxy-propyl]-1-oxo-3,4-dihydroisoquinolin-6-yl]-5,6,8,8a-tetrahydro-1H-oxazolo[3,4-a]pyrazin-3-one]
100 to 1000 nM | CC(=O)N1CCC(Oc2ccc3c(c2)CCN(C[C@H](O)CN2CCc4ccccc4C2)C3=O)CC1 [Example 95, 6-[(1-acetyl-4-piperidyl)oxy]-2-[(2R)-3-(3,4-dihydro-1H-isoquinolin-2-yl)-2-hydroxy-propyl]-3,4-dihydroisoquinolin-1-one]
100 to 1000 nM | CC(=O)N1CC(Oc2ccc3c(c2)CCN(C[C@H](O)CN2CCc4ccccc4C2)C3=O)C1 [Example 96, 6-(1-acetylazetidin-3-yl)oxy-2-[(2R)-3-(3,4-dihydro-1H-isoquinolin-2-yl)-2-hydroxy-propyl]-3,4-dihydroisoquinolin-1-one]
100 to 1000 nM | CN(C)C(=O)C1CCN(c2ccc3c(c2)CCN(C[C@H](O)CN2CCc4ccccc4C2)C3=O)CC1 [Example 97, 1-[2-[(2R)-3-(3,4-dihydro-1H-isoquinolin-2-yl)-2-hydroxy-propyl]-1-oxo-3,4-dihydroisoquinolin-6-yl]-N,N-dimethyl-piperidine-4-carboxamide]
100 to 1000 nM | CC(=O)N1CCCC(Nc2ccc3c(c2)CCN(C[C@H](O)CN2CCc4ccccc4C2)C3=O)CC1 (stereo partly drawn) [Example 98, 6-[(1-acetylazepan-4-yl)amino]-2-[(2R)-3-(3,4-dihydro-1H-isoquinolin-2-yl)-2-hydroxy-propyl]-3,4-dihydroisoquinolin-1-one]
100 to 1000 nM | CC(=O)N1CCC(Nc2ccc3c(c2)CCN(C[C@H](O)CN2CCc4ccccc4C2)C3=O)C1 (stereo partly drawn) [Example 99, 6-[(1-acetylpyrrolidin-3-yl)amino]-2-[(2R)-3-(3,4-dihydro-1H-isoquinolin-2-yl)-2-hydroxy-propyl]-3,4-dihydroisoquinolin-1-one]
1 to 100 nM | N#CN1CCN(c2ccc3c(c2)CCN(C[C@H](O)CN2CCc4ccccc4C2)C3=O)CC1 [Example 101, 4-[2-[(2R)-3-(3,4-dihydro-1H-isoquinolin-2-yl)-2-hydroxy-propyl]-1-oxo-3,4-dihydroisoquinolin-6-yl]piperazine-1-carbonitrile]
1 to 100 nM | O=C1c2ccc(N3CCn4ccnc4C3)cc2CCN1C[C@H](O)CN1CCc2ccccc2C1 [Example 102, 6-(6,8-dihydro-5H-imidazo[1,2-a]pyrazin-7-yl)-2-[(2R)-3-(3,4-dihydro-1H-isoquinoline-2-yl)-2-hydroxy-propyl]-3,4-dihydroisoquinolin-1-one]
1 to 100 nM | CC1CN(c2ccc3c(c2)CCN(C[C@H](O)CN2CCc4ccccc4C2)C3=O)CC(=O)N1C (stereo partly drawn) [Example 103, 2-[(2R)-3-(3,4-dihydro-1H-isoquinolin-2-yl)-2-hydroxy-propyl]-6-(3,4-dimethyl-5-oxo-piperazin-1-yl)-3,4-dihydroisoquinolin-1-one]
1 to 100 nM | CC(=O)N1CCN(c2ccc3c(c2)C(C)(C)CN(C[C@H](O)CN2CCc4ccccc4C2)C3=O)CC1 [Example 104, 6-(4-acetylpiperazin-1-yl)-2-[(2R)-3-(3,4-dihydro-1H-isoquinolin-2-yl)-2-hydroxy-propyl]-4,4-dimethyl-3H-isoquinolin-1-one]
